Measured values reported in ChEMBL document CHEMBL3885881, “DrugMatrix”.

Species on record: Rattus norvegicus
Assay: DrugMatrix - Regimen: Daily Repeat
Type: toxicity, organism-based, Sprague-Dawley
Design: regimen Daily Repeat, gender Male, age 6-8 weeks
Details: in vivo, po, route oral GAVAGE, vehicle .5 % CMC; for ABSOLUTE BASOPHIL / ABSOLUTE EOSINOPHIL / ABSOLUTE LYMPHOCYTE / ABSOLUTE MONOCYTE / ABSOLUTE SEGMENTED NEUTROPHIL / BASOPHIL / EOSINOPHIL / ERYTHROCYTE COUNT / HEMATOCRIT / HEMOGLOBIN / LEUKOCYTE COUNT / LYMPHOCYTE / MEAN CORPUSCULAR HEMOGLOBIN / MEAN CORPUSCULAR HEMOGLOBIN CONCENTRATION / MEAN CORPUSCULAR VOLUME / MONOCYTE / NEUTROPHIL / NUCLEATED RED BLOOD CELLS / PLATELET COUNT: tissue Blood; for ALANINE AMINOTRANSFERASE / ALBUMIN / ALKALINE PHOSPHATASE / ASPARTATE AMINOTRANSFERASE / BLOOD UREA NITROGEN / CARBON DIOXIDE / CHLORIDE / CHOLESTEROL / CREATINE PHOSPHOKINASE / CREATININE / GLUCOSE / LACTATE DEHYDROGENASE / LIPASE / PHOSPHORUS / POTASSIUM / SODIUM / TOTAL BILIRUBIN / TOTAL PROTEIN / URIC ACID: tissue Plasma
[1] = 60 mg/kg, 72 h, dose level Low, time 3 day
[2] = 60 mg/kg, 120 h, dose level Low, time 5 day
[3] = 1200 mg/kg, 72 h, dose level High, time 3 day
[4] = 1200 mg/kg, 120 h, dose level High, time 5 day

CCS(=O)(=O)CCn1c([N+](=O)[O-])cnc1C [TINIDAZOLE]
ABSOLUTE BASOPHIL [1]: 0 CELLS/uL | ABSOLUTE EOSINOPHIL [1]: 339 CELLS/uL | ABSOLUTE LYMPHOCYTE [1]: 11000.67 CELLS/uL | ABSOLUTE MONOCYTE [1]: 171.33 CELLS/uL | ABSOLUTE SEGMENTED NEUTROPHIL [1]: 989 CELLS/uL | BASOPHIL [1]: 0% | EOSINOPHIL [1]: 2.67% | ERYTHROCYTE COUNT [1]: 5.79 x10E6/uL | HEMATOCRIT [1]: 34.93% | HEMOGLOBIN [1]: 13.13 G/DL | LEUKOCYTE COUNT [1]: 12.5 x10E3/uL | LYMPHOCYTE [1]: 88% | MEAN CORPUSCULAR HEMOGLOBIN [1]: 22.67 pg | MEAN CORPUSCULAR HEMOGLOBIN CONCENTRATION [1]: 37.67 G/DL | MEAN CORPUSCULAR VOLUME [1]: 60.2 fL | MONOCYTE [1]: 1.33% | NEUTROPHIL [1]: 8% | NUCLEATED RED BLOOD CELLS [1]: 0 /100WBC | PLATELET COUNT [1]: 1415.67 x10E3/uL | ALANINE AMINOTRANSFERASE [1]: 51.33 u/L | ALBUMIN [1]: 4.33 G/DL | ALKALINE PHOSPHATASE [1]: 361.33 u/L | ASPARTATE AMINOTRANSFERASE [1]: 96.67 u/L | BLOOD UREA NITROGEN [1]: 14.67 mg/dL | CARBON DIOXIDE [1]: 26 mmol/L | CHLORIDE [1]: 105 MEQ/L | CHOLESTEROL [1]: 71 mg/dL | CREATINE PHOSPHOKINASE [1]: 896 u/L | CREATININE [1]: 0.17 mg/dL | GLUCOSE [1]: 168 mg/dL | LACTATE DEHYDROGENASE [1]: 108.33 u/L | LIPASE [1]: 9 u/L | PHOSPHORUS [1]: 14.2 mg/dL | POTASSIUM [1]: 6.01 MEQ/L | SODIUM [1]: 145.6 MEQ/L | TOTAL BILIRUBIN [1]: 0.23 mg/dL | TOTAL PROTEIN [1]: 5.87 G/DL | URIC ACID [1]: 2.47 mg/dL | ABSOLUTE BASOPHIL [2]: 0 CELLS/uL | ABSOLUTE EOSINOPHIL [2]: 103.33 CELLS/uL | ABSOLUTE LYMPHOCYTE [2]: 13904.67 CELLS/uL | ABSOLUTE MONOCYTE [2]: 205.33 CELLS/uL | ABSOLUTE SEGMENTED NEUTROPHIL [2]: 1020 CELLS/uL | BASOPHIL [2]: 0% | EOSINOPHIL [2]: 0.67% | ERYTHROCYTE COUNT [2]: 5.73 x10E6/uL | HEMATOCRIT [2]: 35.5% | HEMOGLOBIN [2]: 13.43 G/DL | LEUKOCYTE COUNT [2]: 15.23 x10E3/uL | LYMPHOCYTE [2]: 91.33% | MEAN CORPUSCULAR HEMOGLOBIN [2]: 23.43 pg | MEAN CORPUSCULAR HEMOGLOBIN CONCENTRATION [2]: 37.83 G/DL | MEAN CORPUSCULAR VOLUME [2]: 61.97 fL | MONOCYTE [2]: 1.33% | NEUTROPHIL [2]: 6.67% | NUCLEATED RED BLOOD CELLS [2]: 0.33 /100WBC | PLATELET COUNT [2]: 1361.67 x10E3/uL | ALANINE AMINOTRANSFERASE [2]: 48 u/L | ALBUMIN [2]: 4.23 G/DL | ALKALINE PHOSPHATASE [2]: 407 u/L | ASPARTATE AMINOTRANSFERASE [2]: 87 u/L | BLOOD UREA NITROGEN [2]: 18 mg/dL | CARBON DIOXIDE [2]: 26.33 mmol/L | CHLORIDE [2]: 107 MEQ/L | CHOLESTEROL [2]: 76.33 mg/dL | CREATINE PHOSPHOKINASE [2]: 445.33 u/L | CREATININE [2]: 0.21 mg/dL | GLUCOSE [2]: 165.33 mg/dL | LACTATE DEHYDROGENASE [2]: 155 u/L | LIPASE [2]: 9 u/L | PHOSPHORUS [2]: 13.63 mg/dL | POTASSIUM [2]: 6.07 MEQ/L | SODIUM [2]: 145.9 MEQ/L | TOTAL BILIRUBIN [2]: 0.17 mg/dL | TOTAL PROTEIN [2]: 6.5 G/DL | URIC ACID [2]: 2.07 mg/dL | ABSOLUTE BASOPHIL [3]: 0 CELLS/uL | ABSOLUTE EOSINOPHIL [3]: 0 CELLS/uL | ABSOLUTE LYMPHOCYTE [3]: 8834.67 CELLS/uL | ABSOLUTE MONOCYTE [3]: 232.67 CELLS/uL | ABSOLUTE SEGMENTED NEUTROPHIL [3]: 799.33 CELLS/uL | BASOPHIL [3]: 0% | EOSINOPHIL [3]: 0% | ERYTHROCYTE COUNT [3]: 5.53 x10E6/uL | HEMATOCRIT [3]: 35.63% | HEMOGLOBIN [3]: 13.37 G/DL | LEUKOCYTE COUNT [3]: 9.87 x10E3/uL | LYMPHOCYTE [3]: 89.67% | MEAN CORPUSCULAR HEMOGLOBIN [3]: 24.17 pg | MEAN CORPUSCULAR HEMOGLOBIN CONCENTRATION [3]: 37.57 G/DL | MEAN CORPUSCULAR VOLUME [3]: 64.4 fL | MONOCYTE [3]: 2.33% | NEUTROPHIL [3]: 8% | NUCLEATED RED BLOOD CELLS [3]: 0 /100WBC | PLATELET COUNT [3]: 1043.67 x10E3/uL | ALANINE AMINOTRANSFERASE [3]: 47 u/L | ALBUMIN [3]: 4.5 G/DL | ALKALINE PHOSPHATASE [3]: 362.67 u/L | ASPARTATE AMINOTRANSFERASE [3]: 80.33 u/L | BLOOD UREA NITROGEN [3]: 15.33 mg/dL | CARBON DIOXIDE [3]: 28 mmol/L | CHLORIDE [3]: 106 MEQ/L | CHOLESTEROL [3]: 89.33 mg/dL | CREATINE PHOSPHOKINASE [3]: 226.67 u/L | CREATININE [3]: 0.24 mg/dL | GLUCOSE [3]: 123 mg/dL | LACTATE DEHYDROGENASE [3]: 186 u/L | LIPASE [3]: 9.33 u/L | PHOSPHORUS [3]: 11.47 mg/dL | POTASSIUM [3]: 6.78 MEQ/L | SODIUM [3]: 150.07 MEQ/L | TOTAL BILIRUBIN [3]: 0.3 mg/dL | TOTAL PROTEIN [3]: 6.13 G/DL | URIC ACID [3]: 1 mg/dL | ABSOLUTE BASOPHIL [4]: 0 CELLS/uL | ABSOLUTE EOSINOPHIL [4]: 57.67 CELLS/uL | ABSOLUTE LYMPHOCYTE [4]: 15287.67 CELLS/uL | ABSOLUTE MONOCYTE [4]: 50.33 CELLS/uL | ABSOLUTE SEGMENTED NEUTROPHIL [4]: 2437.67 CELLS/uL | BASOPHIL [4]: 0% | EOSINOPHIL [4]: 0.33% | ERYTHROCYTE COUNT [4]: 5.86 x10E6/uL | HEMATOCRIT [4]: 35.6% | HEMOGLOBIN [4]: 13.2 G/DL | LEUKOCYTE COUNT [4]: 17.83 x10E3/uL | LYMPHOCYTE [4]: 85% | MEAN CORPUSCULAR HEMOGLOBIN [4]: 22.53 pg | MEAN CORPUSCULAR HEMOGLOBIN CONCENTRATION [4]: 37.07 G/DL | MEAN CORPUSCULAR VOLUME [4]: 60.8 fL | MONOCYTE [4]: 0.33% | NEUTROPHIL [4]: 14.33% | NUCLEATED RED BLOOD CELLS [4]: 0 /100WBC | PLATELET COUNT [4]: 1437 x10E3/uL | ALANINE AMINOTRANSFERASE [4]: 43.33 u/L | ALBUMIN [4]: 4.3 G/DL | ALKALINE PHOSPHATASE [4]: 276.33 u/L | ASPARTATE AMINOTRANSFERASE [4]: 79.67 u/L | BLOOD UREA NITROGEN [4]: 19.33 mg/dL | CARBON DIOXIDE [4]: 25 mmol/L | CHLORIDE [4]: 105 MEQ/L | CHOLESTEROL [4]: 76.67 mg/dL | CREATINE PHOSPHOKINASE [4]: 212.67 u/L | CREATININE [4]: 0.29 mg/dL | GLUCOSE [4]: 152 mg/dL | LACTATE DEHYDROGENASE [4]: 226.67 u/L | LIPASE [4]: 8.67 u/L | PHOSPHORUS [4]: 12.57 mg/dL | POTASSIUM [4]: 6.85 MEQ/L | SODIUM [4]: 146.2 MEQ/L | TOTAL BILIRUBIN [4]: 0.13 mg/dL | TOTAL PROTEIN [4]: 6.7 G/DL | URIC ACID [4]: 2.17 mg/dL
